Measured values taken from the METLIN SMRT retention time set (Domingo-Almenara et al. 2019).

Assay: gradient 5% acetonitrile 3 min, to 50% in 2 min, to 85% in 15 min, held 3 min, 100 µL/min
Details: column: Zorbax Extend-C18 2.1 x 50 mm; eluents: water / acetonitrile, 0.1% formic acid
Outline: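 Over 3 months, pure standards in mixtures of ~100 molecules were run by HPLC coupled to a quadrupole time-of-flight mass spectrometer in positive and negative ionization mode. The column was a Zorbax Extend-C18 (2.1 × 50 mm, 1.8 μm) at 100 μL/min, eluted with water and acetonitrile each holding 0.1% formic acid, with 40 μL dead and 900 μL dwell volumes. Retention time was determined from adduct peaks chosen by software and checked manually.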

Structure (SMILES) | RP-LC retention time [s]
Cc1ccc(N2C(=O)CN(S(=O)(=O)c3ccc(C)cc3)CC2(C)C(=O)NC2CCCC2)cc1 (centres undefined) | 983
Cc1nn(C2CCS(=O)(=O)C2)c(C)c1N1CCN(S(=O)(=O)c2cccs2)CC1 (centres undefined) | 752
O=C(Cn1nc(N2CCCCCC2)c2ccccc2c1=O)Nc1cccc(Cl)c1 | 1180
Cc1onc(-c2ccccc2Cl)c1C(=O)NC1CC(=O)N(C2CC2)C1 (centres undefined) | 636
CN(C)c1ccc(C(=O)N2CCN(c3cc(-c4ccccc4)[nH]n3)CC2)cc1 | 757
CN1C(=O)c2cccn2CC1CNS(=O)(=O)Cc1ccccc1 (centres undefined) | 678
Cc1noc(C2CN(C(=O)Nc3cc(F)ccc3F)CC23CCOCC3)n1 (centres undefined) | 733
Cc1nnc2ccc(N3CCC(C)CC3)nn12 | 1000
COC(=O)C(Cc1ccccc1)NC(=O)Nc1c(-c2ccc(C)cc2)nc2ccccn12 (centres undefined) | 686
CCCS(=O)(=O)N1CCC(CCOC)(NC(=O)C2CC2)CC1 | 686
CCCCOc1ccc(-c2nc(C3CC(=O)N(c4ccc(F)c(Cl)c4)C3)no2)cc1 (centres undefined) | 1370
O=C(NCCCN1CCCC1)C1CN(C(=O)c2ccccc2)CC12CCCCC2 (centres undefined) | 611
Cc1nn(-c2ccc(C(=O)N3CCN(C)CC3)cc2)c2c1C(=O)CC(C)(C)C2 | 593
Cc1ccccc1-c1ccc(N2CCCC(C(=O)NC(C)CCc3ccccc3)C2)nn1 (centres undefined) | 817
Cc1cc(-c2c(C)sc(C)c2S(=O)(=O)N2CC=C(c3ccccc3)CC2)n[nH]1 | 1040
C=CCN1CC[C@]2(C)c3cc(O)ccc3CC1[C@@H]2C | 594
O=C(c1ccccn1)N1CCCC(OCc2nc(C3CC3)no2)C1 (centres undefined) | 619
COc1ccc(OC)c(S(=O)(=O)N(C)CC2(C)CCOCC2)c1 | 852
O=c1c2cc(-c3ccc4c(c3)OCO4)nn2ccn1Cc1nc(-c2cccc(F)c2)no1 | 1010
O=c1c(O[C@@H]2O[C@H](CO)[C@H](O)[C@H](O)[C@H]2O)c(-c2ccc(O)c(O)c2)oc2cc(O)cc(O)c12 | 656
COc1cccc(-c2cc(N3CCN(C(=O)Nc4cc(OC)ccc4OC)CC3)ncn2)c1 | 688
CCC(=O)Nc1ccc2c(c1)CN(C(=O)c1ccccc1)C(C(=O)N1CCCC1)C2 (centres undefined) | 667
CCCNC(=O)C1CCN(c2cnc(N3CCCCCC3)nc2)CC1 | 666
Cc1ccc(S(=O)(=O)N2CCC3(CC2)NCCN=C3NCc2ccc(C(F)(F)F)cc2)cc1 | 789
O=C(NCCc1ccccc1)c1c(O)c2sccc2n(Cc2ccccc2)c1=O | 1270

Structure (SMILES) | RP-LC retention time [s]
CC1CCCCN1c1cc(-n2cnc(C(=O)N3CCCCC3)c2)ncn1 (centres undefined) | 880
O=C(O)C1CCc2sc(C(=O)N3CCOCC3)cc2C1 (centres undefined) | 625
Nc1c(-c2nnc(SCC(=O)N3CCOCC3)n2CC2CCCO2)sc2ncccc12 (centres undefined) | 641
COc1cc(C(=O)N2CCCN(c3cc(=O)n(C)c(=O)n3C)CC2)cc(OC)c1OC | 624
O=S(=O)(NC1CCCCC1)c1ccc(-c2nnc(C3CC3)o2)o1 | 940
CCCNC(=O)Nc1ccc(NC(=O)N2CCCC(C(=O)NC3CCCCC3)C2)cc1 (centres undefined) | 702
CN(C)c1nc(N)c(C(=O)N=C(N)N)nc1Cl | 661
Cc1nc(Nc2ccc(F)cn2)sc1C(=O)N1CCN(c2ccccc2)CC1 | 875
COc1ccc(-c2cn3ccn(-c4ccc(OC)cc4)c(=O)c3n2)cc1 | 768
CCOc1ccccc1NS(=O)(=O)c1ccc2c(c1)CCCC(=O)N2 | 783
CCOC(=O)C1=C(C)NC2=C(C(=O)CCC2)C1c1ccc(OC)c(OC)c1OC (centres undefined) | 727
CCOC(=O)/C=C/c1ccc(C(=O)OCC)[nH]1 | 947
O=C(c1ccco1)N1CCN(c2ccc(-c3noc(C4CCC4)n3)cc2)CC1 | 990
O=[N+]([O-])c1cnc(Sc2ccncn2)s1 | 843
CCC(=O)N1CC(=O)N(CC)C2(CCOCC2)C1 | 561
COC(=O)Nc1ccc(S(=O)(=O)N2CCCC(C(F)(F)F)C2)cc1 (centres undefined) | 837
Cc1cc(C)cc(C(=O)N2CCC(COc3ccc(C(=O)NC4CC4)cc3)CC2)c1 | 887
CCOc1ccc(/C=C2\CCc3ccccc3C2=O)cc1 | 1290
CC(C)NCCCn1c(Sc2cc3c(cc2I)OCO3)nc2c(N)ncnc21 | 592
Cc1cc(S(=O)(=O)N2CCCC(Cn3cnc4cccnc43)C2)ccc1F (centres undefined) | 787
O=C(NCc1ccco1)N1CC2CN(S(=O)(=O)c3cccc(F)c3)CC(C1)O2 | 744
CC(C)c1nccn1C1CN(C(=O)c2ccc3[nH]ccc3c2)C1 | 580
Cc1onc(-c2ccccc2Cl)c1C(=O)Nc1cc(C(=O)N2CCCC2)cn(C)c1=O | 699
O=C(Cc1csc2nc(-c3ccccc3)cn12)N1CCN(c2ccccc2F)CC1 | 869

Further lines, results first:

RP-LC retention time [s] | Structure (SMILES)
605 | Cc1cnc(-c2ccncc2)n1C1CCN(S(=O)(=O)c2ccc3c(c2)CCC3)C1 (centres undefined)
906 | Cc1ccc(-n2c(=O)c3c(cc(C)n3C)n(CC(=O)Nc3cc(C)ccc3C)c2=O)cc1
686 | CN(C)CCCNC(=O)C1CCN(c2nc3ccc(-c4ccc(F)cc4)nc3s2)CC1
937 | Cc1ccc(NC(=O)NCCc2cn(CC(C)C)c3ncccc23)c(Cl)c1
1210 | CCCn1nnc(NCc2ccc(-c3cc(Cl)cc(Cl)c3)o2)n1
697 | O=C(NCCn1c(-c2ccc(F)cc2)nc2cccnc21)c1ccc2c(c1)OCO2
640 | CCOC(=O)c1ccc(NC(=O)N2CCN(CC)c3ncccc32)cc1
573 | CCOc1ccc2nc(Nc3nc(C)c4c(n3)CCCC4)nc(C)c2c1
1060 | CCOC(=O)COc1cc(-c2ccc(C)cc2)nc2ccc(NC(=O)C3CCC3)cc12
823 | Cc1nc(-c2csc(S(=O)(=O)N3CCC(C(=O)NCc4cccs4)CC3)c2)no1
622 | COCCNc1c(C(=O)OC)c(=O)[nH]c2ccc(F)cc12
765 | Cc1ccc(CNC(=O)C2CCN(S(=O)(=O)c3cc(C(=O)N4CCOCC4)cs3)CC2)cc1
889 | CCCn1ccc2sc(C)c(C(=O)NCc3cc(OC)ccc3OC)c2c1=O
577 | COCC(C)(O)CNC(=O)c1cccnc1SC (centres undefined)
746 | Cc1cc2c(F)c(Oc3ncnn4cc(OC[C@@H](C)OC(=O)[C@H](C)N)c(C)c34)ccc2[nH]1
1080 | CC(=O)c1sc(NC(=O)c2cc(Cl)sc2Cl)nc1-c1ccccc1
807 | CCC(C)Nc1cc(C)nc2c(C)c(-c3ccc(Cl)cc3)nn12 (centres undefined)
1100 | Cc1cc(C(=O)N(Cc2ccco2)c2nc3ccccc3s2)on1
806 | COCCCNC(=O)C1(C)Cn2nc(-c3ccccc3)cc2C(=O)N1c1ccc(F)cc1 (centres undefined)
944 | Cc1sc(-c2nnc(C3CC3)o2)cc1NC(=O)Cc1ccccc1F

RP-LC retention time [s] | Structure (SMILES)
872 | CN(CCc1noc(COc2ccccc2)n1)C(=O)c1c(F)cccc1F
965 | CCn1cc(-c2nc(C)c(C(=O)Nc3ccccc3)s2)c2cccnc21
802 | CCc1ccc(CNC(=O)C2CCc3nc(N4CCOCC4)ncc3C2)cc1 (centres undefined)
656 | O=C(NCc1ccc2c(c1)OCO2)C1CCN(C(=O)c2cc(-c3cccnc3)n[nH]2)CC1
616 | CCCc1cc(N2CCN(C(=O)c3ccn(CC)n3)CC2)nc2nnc(CC)n12
1050 | COc1ccc(-c2noc(-c3nc(C(C)C)no3)n2)cc1OC
511 | CCN(CC)c1nc(C(=O)NCc2ccncc2)nc2nc(C)cc(C)c12
869 | CC(C)(C)c1ccc(S(=O)(=O)N2CCC(C(=O)NCc3cscn3)CC2)cc1
829 | Cn1nc(-c2cccc(NC(=O)c3ccc4ccccc4n3)c2)ccc1=O
1170 | CC1=NS(=O)(=O)N(Cc2ccccc2)C=C1C(=O)OCc1ccccc1C
609 | CCOC(=O)C(C)NC(=O)N1CCN(c2nc3ccccc3n2CC)CC1 (centres undefined)
1110 | CCCn1cc(C2=CCN(S(=O)(=O)Cc3cccc(Cl)c3)CC2)c2cccnc21
836 | Cc1ccc(NC(=O)Cn2nc(N3CCOCC3)c3ccccc3c2=O)cc1F
725 | Cc1ccc(S(=O)(=O)N2CCCC(Cn3c(C)nc4cccnc43)C2)cc1F (centres undefined)
767 | COc1cc(C(=O)NC(C)C(=O)Nc2nc3ccccc3[nH]2)cc(OC)c1OC (centres undefined)
1050 | Cc1ccc(S(=O)(=O)N2CCC(n3cnc4c(C)cccc4c3=O)CC2)cc1C
798 | COc1ccc(NC(=O)Cn2c(=O)c(CCC(=O)NCC(C)C)nc3ccccc32)cc1
665 | Cc1nn(CC(=O)NCCCN2CCOCC2)c(=O)c2c(-n3cccc3)n(-c3ccc(F)cc3)nc12
540 | CCn1cnc(S(=O)(=O)N2CCC(C(=O)NCc3ccccn3)CC2)c1
985 | Cc1nc2c(sc3nc(-c4ccccc4)ccc32)c(=O)n1CC(=O)NCc1ccc2c(c1)OCO2
